Consider two compounds from paper PMC10305119, “Analogs of 6-Bromohypaphorine with Increased Agonist Potency for α7 Nicotinic Receptor as Anti-Inflammatory Analgesic Agents” (Marine Drugs, 2023).

Usually IC50 stands for the midpoint of a concentration-inhibition curve.

“Also recorded” adds a separate entry of the source.

The target of assay [1] is T1, human α3-containing nAChRs (Homo sapiens, UniProt P32297).
T1 construct: endogenous in cells; host or cells: human neuroblastoma SH-SY5Y
Put plainly: Calcium imaging of α3-containing nAChRs in SH-SY5Y cells (nicotine-induced calcium rise). The assay is classed as cell-based. The procedure:
Two of the studied compounds with high and medium agonist potency for α7 nAChR (6CF and 6ID, Table 1) were tested for activity toward α3* nAChR by calcium imaging.
Normalized data are presented as mean ± standard error. n = 6–7.

In assay [2] the test system is MIA-induced arthritis. Put plainly: Monoiodoacetate-induced arthritis model, functional tests. The assay is classed as in vivo, Wistar female rats. How it is done: By the 8th day of the experiment, the maximum inflammation of the knee joint was noted. […] On the 8th and 16th days, the effect of the compound was assessed using a set of functional tests: weight distribution between the healthy and inflamed limbs immediately after the first 6ND injection (Figure 8a) and after eight days of 6ND administration (Figure 8b), muscle strength grasping the hind limbs after the first 6ND injection (Figure 8c) and after eight days of 6ND administration (Figure 8d), mechanical allodynia after the start of 6ND administration and after eight days of 6ND administration (Figure 8e,f, respectively), thermal hypersensitivity 2 h after administration of 6ND ([…]), and measuring the diameter of the knee joint (Figure 8h).
(§1) Four groups of animals were formed: control and three groups with modelling of inflammation by introducing monoiodoacetate (MIA). Three groups of animals were injected with 3 mg MIA in 50 μL of 0.9% sodium chloride through the patellar ligament into the intra-articular space of the right knee using a 29-G needle. Control rats received an equivalent volume of 0.9% sodium chloride.
Assessments of inflammation in vivo and functional tests were conducted on days 8 and 16 after arthritis model induction. Thermal and mechanical hypersensitivity and pain-induced articular disability were tested in this model. Body weight gain and paw oedema were also monitored during the experiment.
The inflamed paw withdrawal or licking latencies to thermal stimulation were measured on a hot plate device (Hot Plate Analgesia Meter, Columbus Instruments) with a set temperature of 53 ± 0.1 °C and a cut-off time of 60 s.
Mechanical hypersensitivity was measured by the electronic von Frey instrument (model BIO-EVF4; Bioseb, Vitrolles, France) used to vertically stimulate the center of the rat hind paw with increasing intensity. Measurements were repeated 3 times and the final value was obtained by averaging the 3 measurements.
Behavioral assessment of movement-caused pain was carried out in a hind limb grip strength test using a Grip Strength Meter (Columbus Instruments, Columbus, OH, USA) consisting of a wire mesh frame connected to the gauge. Rats were restrained and allowed to grasp the wire mesh frame with their hind paws and then were pulled backwards until the grip released. Three measurements were conducted with an interval of 30 s for the averaged grip strength calculation.

In assay [3] the test system is MIA-induced arthritis. Put plainly: Monoiodoacetate-induced arthritis model, histological study of the knee joint. The following applies: 15th day, scale 0-5, n = 4. It counts as in vivo, female rats.
Text: After the experiment termination and euthanasia of the experimental animals, biomaterials were taken for histological examination. Soft tissues around the right knee joint were excised as much as possible. Femur, tibia, and fibula were cut across in the middle of the diaphysis closer to the corresponding articular surfaces. The joint was fixed in a 10% solution of neutral formalin for seven days, washed in running water and then decalcified in Trilon B for 7–14 days. After satisfactory decalcification of the bone and cartilage tissue, the joint was cut in the sagittal plane. The diaphysis of the tubular bones was shortened to the border of 2–3 mm from the metaepiphyseal cartilage. In this form, the biomaterial was repeatedly washed in running water, dehydrated in alcohols of ascending concentration, and embedded in paraffin. Paraffin sections 5–7 μm thick were stained with hematoxylin and eosin and examined using conventional light microscopy. During histological analysis, the following morphological signs were assessed: inflammatory infiltration of the synovial membrane (synovitis), synovial hyperplasia, destructive changes in the articular cartilage, and destructive changes in bone tissue (if any). The following scale was used to assess the severity of a particular morphological trait: 0 points—within normal limits, 1—minimal severity, 2—weak, 3—medium (moderate), 4—strong, 5—very strong.
as §1

T1 sequence (P32297 32-505): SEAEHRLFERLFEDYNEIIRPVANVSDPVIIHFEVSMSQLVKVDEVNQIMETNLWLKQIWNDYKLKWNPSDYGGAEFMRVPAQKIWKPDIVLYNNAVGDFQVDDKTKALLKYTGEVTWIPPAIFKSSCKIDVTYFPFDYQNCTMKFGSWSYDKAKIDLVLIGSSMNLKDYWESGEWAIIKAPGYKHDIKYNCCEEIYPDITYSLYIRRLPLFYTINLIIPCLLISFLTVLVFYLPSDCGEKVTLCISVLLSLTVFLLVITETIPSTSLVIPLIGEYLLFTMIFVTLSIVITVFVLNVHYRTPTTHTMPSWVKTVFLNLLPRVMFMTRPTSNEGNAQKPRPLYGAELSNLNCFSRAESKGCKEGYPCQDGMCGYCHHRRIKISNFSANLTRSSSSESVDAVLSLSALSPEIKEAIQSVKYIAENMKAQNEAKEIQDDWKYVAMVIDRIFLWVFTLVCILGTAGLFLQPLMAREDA

For the compound `COC(=O)[C@@H](Cc1c[nH]c2cc(I)ccc12)[N+](C)(C)C` [Compound 1, (D)-6-iodohypaphorine methyl ester], the “agonism on α3* nAChR (calcium response)” value in assay [1] (compound alone, listed as 6ID) was “does not evoke noticeable calcium response in range of 3–30 μM; also recorded: Neither 6ID, which was most active agonist of α7 nAChR, nor 6CF showed detectable agonism on α3* nAChR at concentrations up to 30 µM”. The 50% inhibitory concentration (IC50) in assay [1] (inhibition of nicotine (100 μM)-induced calcium rise) is 4.4 ± 1 µM.
On to `COC(=O)C(Cc1c[nH]c2cc([N+](=O)[O-])ccc12)[N+](C)(C)C` (centres unmarked) [Compound 5, methyl ester of 6-nitrohypaphorine], for which the “anti-oedemic and analgesic effects in arthritis rat model” value in the assay on MIA-induced arthritis [2] (i.p. doses 0.05–0.26 mg/kg) is “demonstrated anti-oedemic and analgesic effects”. Also, in the assay on MIA-induced arthritis [2] (rats, 0.05 and 0.26 mg/kg, after eight days of administration, listed as 6ND), the “grip strength of affected limb” value is “significantly improved grip strength in MIA-induced arthritis in rats at a dose of 0.05 but not 0.26 mg/kg; also recorded: significantly improved grip strength of affected limb after eight days”. For the same compound, the “body weight distribution between healthy and affected limbs” value in the assay with MIA-induced arthritis [2] (rats, 0.05 and 0.26 mg/kg, days 8 and 16, listed as 6ND) was “No significant influence of 6ND on recovery was detected; also recorded: did not influence body weight distribution”. For the same compound, in the assay with MIA-induced arthritis [2] (rats, 2 h after administration, listed as 6ND), the “thermal hyperalgesia in hot plate test” value is on record as “No significant effects of 6ND in hot plate test; also recorded: did not influence thermal hyperalgesia”. Moreover, the mechanical allodynia result in the assay with MIA-induced arthritis [2] (rats, 16 days after MIA, eight days of administration, listed as 6ND) was “dose-dependent improvement in allodynia test 16 days after MIA injection; also recorded: analgesic (anti-allodynic) effect”. For the same compound, the “oedema of the MIA-injected knee joint (diameter)” value in the assay with MIA-induced arthritis [2] (rats, listed as 6ND) was “Significant effect in dynamics of oedema was detected in rats treated with 0.05 mg/kg 6ND; also recorded: anti-oedemic effect on the MIA-injected joint”. Also, in the assay with MIA-induced arthritis [3] (0.05 mg/kg intramuscular), the “Destructive Changes in the Distal Epiphyseal Cartilage of the Femur, Max score” value is 3.0; the “Destructive Changes in the Distal Epiphyseal Cartilage of the Femur, Me (average) score” value was determined as 3.0; the “Destructive Changes in the Distal Epiphyseal Cartilage of the Femur, Min score” value is 3.0; the “Destructive Changes in the Proximal Epiphyseal Cartilage of the Tibia, Max score” value is listed as 4.0. Moreover, in the assay with MIA-induced arthritis [3] (0.05 mg/kg intramuscular), the “Destructive Changes in the Proximal Epiphyseal Cartilage of the Tibia, Me (average) score” value is 3.5; the “Destructive Changes in the Proximal Epiphyseal Cartilage of the Tibia, Min score” value came to 3.0; the “Inflammatory Infiltration of the Synovium, Max score” value stood at 4.0; the “Inflammatory Infiltration of the Synovium, Me (average) score” value is recorded as 3.75. Also, in the assay with MIA-induced arthritis [3] (0.05 mg/kg intramuscular), the “Inflammatory Infiltration of the Synovium, Min score” value is recorded as 3.0; the “Synovial Hyperplasia, Max score” value turned out to be 3.0; the “Synovial Hyperplasia, Min score” value turned out to be 2.0. In addition, the “Synovial Hyperplasia, Me (average) score” value in the assay with MIA-induced arthritis [3] (0.05 mg/kg intramuscular, listed as 6ND) is 2.25. Besides, in the assay on MIA-induced arthritis [3] (0.26 mg/kg intramuscular), the “Destructive Changes in the Distal Epiphyseal Cartilage of the Femur, Max score” value stood at 3.0; the “Destructive Changes in the Distal Epiphyseal Cartilage of the Femur, Me (average) score” value turned out to be 3.0; the “Destructive Changes in the Distal Epiphyseal Cartilage of the Femur, Min score” value was 3.0; the “Destructive Changes in the Proximal Epiphyseal Cartilage of the Tibia, Max score” value is 4.0. Also, in the assay on MIA-induced arthritis [3] (0.26 mg/kg intramuscular), the “Destructive Changes in the Proximal Epiphyseal Cartilage of the Tibia, Me (average) score” value stood at 3.5; the “Destructive Changes in the Proximal Epiphyseal Cartilage of the Tibia, Min score” value was 3.0; the “Inflammatory Infiltration of the Synovium, Max score” value is 3.0; the “Inflammatory Infiltration of the Synovium, Me (average) score” value is 2.5. Moreover, in the assay on MIA-induced arthritis [3] (0.26 mg/kg intramuscular), the “Inflammatory Infiltration of the Synovium, Min score” value is given as 2.0; the “Synovial Hyperplasia, Max score” value turned out to be 2.0; the “Synovial Hyperplasia, Me (average) score” value was 1.5; the “Synovial Hyperplasia, Min score” value worked out at 1.0.
